Experimental data as given in ChEMBL document CHEMBL5390228, “Unnatural Endotype B PPAPs as Novel Compounds with Activity against Mycobacterium tuberculosis” (J Med Chem, 2023).
Calls of active or inactive are those of the source. No cut-off for these calls is given here.

How the values were obtained:
[1] = test system: Mycobacterium tuberculosis; experiment: Antimicrobial activity in Mycobacterium tuberculosis H37Rv ATCC 27294 assessed as reduction in metabolic activity by measuring incorporation radioactively labeled [3H] uracil into live bacilli preincubated for 72 hrs followed by [3H] uracil addition and measured after 18 hrs by beta-counter analysis; type: functional, organism-based; settings: for Activity: time 90.0 hrs
[2] = target: T1, Cytochrome P450 2C8 (Homo sapiens, UniProt P10632); experiment: Induction of CYP2C8 activity in human HepaRG cells at 10 uM incubated for 96 hrs by liquid chromatography with tandem mass spectrometry-based substrate cocktail assay; type: ADME, cell-based
T1 sequence (P10632 whole entry): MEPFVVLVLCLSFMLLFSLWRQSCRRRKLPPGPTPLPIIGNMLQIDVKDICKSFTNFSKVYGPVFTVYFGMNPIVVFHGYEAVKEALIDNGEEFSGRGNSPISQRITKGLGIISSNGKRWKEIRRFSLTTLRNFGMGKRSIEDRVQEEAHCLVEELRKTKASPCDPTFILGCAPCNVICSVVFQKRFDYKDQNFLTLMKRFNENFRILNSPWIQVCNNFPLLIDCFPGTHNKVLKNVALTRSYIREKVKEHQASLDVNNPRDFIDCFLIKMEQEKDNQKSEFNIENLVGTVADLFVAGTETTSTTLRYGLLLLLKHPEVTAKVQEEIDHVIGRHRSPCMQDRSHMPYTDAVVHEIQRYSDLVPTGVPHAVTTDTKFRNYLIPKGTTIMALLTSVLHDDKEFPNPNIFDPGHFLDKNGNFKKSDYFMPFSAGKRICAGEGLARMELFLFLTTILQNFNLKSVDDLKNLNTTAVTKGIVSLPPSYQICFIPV

[3] = target: T2, Nuclear receptor subfamily 1 group I member 2 (Homo sapiens, UniProt O75469); experiment: Activation of GAL4-DBD fused human PXR LBD expressed in human HepG2 cells co-expressing GAL4-responsive UAS-driven firefly luciferase and renilla luciferase assessed as increase in luciferase activity at 1 to 20 uM incubated for 24 hrs by Dual-Glo luciferase assay relative to control; type: cell-based; settings: hepg2, 24 h, dose 1-20 µM
T2 sequence (O75469 whole entry): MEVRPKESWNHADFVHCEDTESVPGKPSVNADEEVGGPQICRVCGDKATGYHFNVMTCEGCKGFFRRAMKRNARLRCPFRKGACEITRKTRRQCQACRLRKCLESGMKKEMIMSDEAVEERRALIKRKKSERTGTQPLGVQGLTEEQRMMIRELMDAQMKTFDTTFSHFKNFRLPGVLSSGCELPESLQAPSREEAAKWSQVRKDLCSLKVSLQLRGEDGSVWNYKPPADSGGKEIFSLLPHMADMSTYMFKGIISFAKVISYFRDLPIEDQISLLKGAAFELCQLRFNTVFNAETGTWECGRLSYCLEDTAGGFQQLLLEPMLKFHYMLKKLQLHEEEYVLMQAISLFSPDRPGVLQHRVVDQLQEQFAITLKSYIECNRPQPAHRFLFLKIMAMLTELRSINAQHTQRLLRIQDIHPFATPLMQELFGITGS

[4] = target: T1, Cytochrome P450 2C8; experiment: Induction of CYP2C8 activity in human HepaRG cells at 5 to 10 uM incubated for 96 hrs by liquid chromatography with tandem mass spectrometry-based substrate cocktail assay; type: ADME, cell-based; settings: dose 5-10 µM
[5] = test system: A549; experiment: Cytotoxicity against human A549 cells assessed as reduction in cell viability at 2.5 to 75 uM incubated for 48 hrs by resazurin reagent based fluorescence assay; type: toxicity; settings: a549, 48 h, dose 2.5-75 µM
[6] = test system: Mycobacterium tuberculosis; experiment: Antimicrobial activity in Mycobacterium tuberculosis expressing mCherry infected in human Primary macrophage cells assessed as reduction in number of intracellular bacilli at 7.5 uM by DAPI staining based Confocal laser scanning microscopy; type: functional, organism-based
[7] = target: Cytochrome P450 2C19 (Homo sapiens, UniProt P33261); experiment: Induction of CYP2C19 activity in human HepaRG cells at 5 to 10 uM incubated for 96 hrs by liquid chromatography with tandem mass spectrometry-based substrate cocktail assay; type: ADME, cell-based; settings: dose 5-10 µM
[8] = Induction of CYP3A4 protein expression in human HepaRG cells at 1 to 20 uM incubated for 24 hrs by targeted mass spectrometry-based immunoassay
[9] = test system: PBMC; experiment: Cytotoxicity against human PBMC cells assessed as reduction in cell viability at 2.5 to 75 uM incubated for 18 hrs by PrestoBlue reagent based fluorescence assay; type: toxicity; settings: dose 2.5-75 µM
[10] = target: T2, Nuclear receptor subfamily 1 group I member 2; experiment: Transactivation of human PXR in human HepG2 cells coexpressing firefly luciferase gene under control of CYP3A4 promoter and renilla luciferase assessed as increase in luciferase activity at 1 to 20 uM incubated for 48 hrs by Dual-Glo luciferase assay; settings: hepg2, 48 h
[11] = test system: Mycobacterium tuberculosis; experiment: Antimicrobial activity in Mycobacterium tuberculosis H37Rv ATCC 27294 infected in human Primary macrophage cells assessed as reduction in intracellular growth of bacteria incubated for 4 days by CFU assay; type: functional, organism-based; settings: H37Rv ATCC 27294, Primary macrophage, 96 h
[12] = target: Cytochrome P450 3A4 (Homo sapiens, UniProt P08684); experiment: Induction of CYP3A4 activity in human HepaRG cells at 5 to 10 uM incubated for 96 hrs by liquid chromatography with tandem mass spectrometry-based substrate cocktail assay; type: ADME, cell-based; settings: dose 5-10 µM
[13] = Induction of CYP3A4 mRNA expression in human HepaRG cells at 1 to 20 uM incubated for 24 hrs by RT-qPCR analysis
[14] = test system: HepG2; experiment: Cytotoxicity against human HepG2 cells assessed as fold reduction in cell viability upto 20 uM incubated for 96 hrs by alamarBlue Cell Viability assay relative to control; type: toxicity, cell-based; settings: hepg2, 96 h
[15] = target: Cytochrome P450 2C9 (Homo sapiens, UniProt P11712); experiment: Induction of CYP2C9 activity in human HepaRG cells at 5 to 10 uM incubated for 96 hrs by liquid chromatography with tandem mass spectrometry-based substrate cocktail assay; type: ADME, cell-based; settings: dose 5-10 µM
[16] = test system: HepaRG; experiment: Cytotoxicity against human HepaRG cells assessed as reduction in cell viability at 60 uM incubated for 24 hrs by WST-1 assay; type: toxicity, cell-based
[17] = target: T3, Cytochrome P450 1A2 (Homo sapiens, UniProt P05177); experiment: Induction of CYP1A2 activity in human HepaRG cells at 5 to 10 uM incubated for 96 hrs by liquid chromatography with tandem mass spectrometry-based substrate cocktail assay; type: ADME, cell-based; settings: dose 5-10 µM
T3 sequence (P05177 whole entry): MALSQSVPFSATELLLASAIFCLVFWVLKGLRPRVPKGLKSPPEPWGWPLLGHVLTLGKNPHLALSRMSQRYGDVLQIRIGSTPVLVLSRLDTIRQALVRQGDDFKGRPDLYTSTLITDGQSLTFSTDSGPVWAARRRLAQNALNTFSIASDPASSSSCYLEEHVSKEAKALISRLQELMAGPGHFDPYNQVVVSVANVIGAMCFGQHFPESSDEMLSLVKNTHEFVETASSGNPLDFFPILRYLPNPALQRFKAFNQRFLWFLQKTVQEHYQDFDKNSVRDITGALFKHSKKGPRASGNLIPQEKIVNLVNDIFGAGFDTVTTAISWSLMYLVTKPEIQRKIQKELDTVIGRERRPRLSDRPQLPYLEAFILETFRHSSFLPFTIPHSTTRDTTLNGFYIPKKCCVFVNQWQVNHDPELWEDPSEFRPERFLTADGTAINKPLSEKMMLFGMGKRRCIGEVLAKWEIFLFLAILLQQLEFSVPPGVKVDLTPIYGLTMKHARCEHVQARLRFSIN

[18] = test system: HepG2; experiment: Cytotoxicity against human HepG2 cells assessed as reduction in cell viability at 10 to 20 uM incubated for 48 hrs by WST-1 assay; type: toxicity, cell-based; settings: hepg2, 48 h, dose 10-20 µM
[19] = target: T4, Cytochrome P450 2B6 (Homo sapiens, UniProt P20813); experiment: Induction of CYP2B6 activity in human HepaRG cells at 5 to 10 uM incubated for 96 hrs by liquid chromatography with tandem mass spectrometry-based substrate cocktail assay; type: ADME, cell-based; settings: dose 5-10 µM
T4 sequence (P20813 whole entry): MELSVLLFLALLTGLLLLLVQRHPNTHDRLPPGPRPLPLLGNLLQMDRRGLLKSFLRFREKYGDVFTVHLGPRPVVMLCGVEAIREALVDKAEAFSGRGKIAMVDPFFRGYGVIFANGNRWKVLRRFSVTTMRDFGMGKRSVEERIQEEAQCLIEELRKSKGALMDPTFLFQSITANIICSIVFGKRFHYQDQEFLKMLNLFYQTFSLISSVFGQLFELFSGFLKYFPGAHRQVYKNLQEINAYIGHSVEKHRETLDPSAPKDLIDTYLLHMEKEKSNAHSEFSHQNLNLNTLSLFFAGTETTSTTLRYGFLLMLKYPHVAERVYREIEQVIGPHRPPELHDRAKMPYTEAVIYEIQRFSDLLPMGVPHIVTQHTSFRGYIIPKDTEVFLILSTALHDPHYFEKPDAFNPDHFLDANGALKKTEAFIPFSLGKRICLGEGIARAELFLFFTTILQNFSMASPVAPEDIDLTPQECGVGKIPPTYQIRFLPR

[20] = test system: Macrophage; experiment: Cytotoxicity against human Primary macrophage cells assessed as reduction in cell viability at 2.5 to 75 uM incubated for 18 hrs by PrestoBlue reagent based fluorescence assay; type: toxicity; settings: dose 2.5-75 µM

Sequence of Cytochrome P450 3A4 (P08684 whole entry): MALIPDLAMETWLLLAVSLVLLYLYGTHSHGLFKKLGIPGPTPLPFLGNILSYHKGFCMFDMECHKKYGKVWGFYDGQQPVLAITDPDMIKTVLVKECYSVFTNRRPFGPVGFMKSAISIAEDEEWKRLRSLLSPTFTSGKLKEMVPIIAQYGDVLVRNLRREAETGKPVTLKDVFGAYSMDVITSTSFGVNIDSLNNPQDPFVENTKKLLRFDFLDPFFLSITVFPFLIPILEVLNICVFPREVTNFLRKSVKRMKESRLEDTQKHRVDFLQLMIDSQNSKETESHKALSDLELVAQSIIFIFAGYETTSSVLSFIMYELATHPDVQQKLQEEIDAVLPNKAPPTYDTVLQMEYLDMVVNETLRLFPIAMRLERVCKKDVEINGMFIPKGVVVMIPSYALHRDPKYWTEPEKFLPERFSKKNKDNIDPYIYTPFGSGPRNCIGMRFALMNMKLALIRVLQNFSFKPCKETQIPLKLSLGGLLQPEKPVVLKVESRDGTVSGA
Sequence of Cytochrome P450 2C9 (P11712 whole entry): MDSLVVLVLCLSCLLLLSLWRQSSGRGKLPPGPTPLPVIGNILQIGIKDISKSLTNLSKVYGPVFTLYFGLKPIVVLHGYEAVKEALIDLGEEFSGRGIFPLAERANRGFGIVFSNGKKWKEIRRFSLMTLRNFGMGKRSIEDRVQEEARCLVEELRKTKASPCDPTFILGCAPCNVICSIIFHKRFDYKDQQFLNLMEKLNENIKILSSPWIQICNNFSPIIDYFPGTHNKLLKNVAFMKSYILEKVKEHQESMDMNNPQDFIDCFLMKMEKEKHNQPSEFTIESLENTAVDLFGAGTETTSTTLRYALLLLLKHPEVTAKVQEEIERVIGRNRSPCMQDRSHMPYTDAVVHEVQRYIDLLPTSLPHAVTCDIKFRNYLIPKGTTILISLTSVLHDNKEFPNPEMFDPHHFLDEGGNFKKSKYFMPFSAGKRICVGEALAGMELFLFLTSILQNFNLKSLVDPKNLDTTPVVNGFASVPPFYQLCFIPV
Sequence of Cytochrome P450 2C19 (P33261 whole entry): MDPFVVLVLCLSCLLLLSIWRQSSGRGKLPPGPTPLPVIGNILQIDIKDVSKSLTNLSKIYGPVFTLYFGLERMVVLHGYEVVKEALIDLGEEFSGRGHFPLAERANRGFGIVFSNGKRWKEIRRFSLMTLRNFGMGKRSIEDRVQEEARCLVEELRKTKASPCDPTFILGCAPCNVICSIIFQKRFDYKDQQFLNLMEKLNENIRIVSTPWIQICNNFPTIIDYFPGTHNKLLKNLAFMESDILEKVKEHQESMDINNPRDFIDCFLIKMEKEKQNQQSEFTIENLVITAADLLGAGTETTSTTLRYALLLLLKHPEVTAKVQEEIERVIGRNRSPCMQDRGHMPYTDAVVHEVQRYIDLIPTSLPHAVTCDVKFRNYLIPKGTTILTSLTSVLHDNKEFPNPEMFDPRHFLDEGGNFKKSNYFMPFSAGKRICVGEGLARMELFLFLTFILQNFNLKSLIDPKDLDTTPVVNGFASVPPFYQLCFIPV

For `C=CC[C@@]12C(=O)C(C(=O)c3ccccc3)=C(O)[C@@](Cc3ccccc3)(C[C@H](CC=C(C)C)C1(C)C)C2=O`, the Activity [1] was “inactive”.
In the case of `CC(=O)C1=C(O)[C@@]2(CC=C(C)C)C[C@H](CC=C(C)C)C(C)(C)[C@@](CC=C(C)C)(C1=O)C2=O`, the Activity [1] is reported as “inactive”.
With `CO[C@H]1/C=C/O[C@@]2(C)Oc3c(C)c(O)c4c(O)c(c(/C=N/N5CCN(C)CC5)c(O)c4c3C2=O)NC(=O)/C(C)=C\C=C\[C@H](C)[C@H](O)[C@@H](C)[C@@H](O)[C@@H](C)[C@H](OC(C)=O)[C@@H]1C` [RIFAMPIN] the Activity [2] was “Not Active” and the Activity [3] was “Active”.
In the case of `C=CC[C@@]12C(=O)C(C(=O)c3ccccc3)=C(O)[C@@](Cc3ccccc3)(C[C@H](Cc3ccccc3)C1(C)C)C2=O`, the Activity [1] is reported as “inactive”.
With `C=CC[C@@]12C[C@H](CC=C(C)C)C(C)(C)[C@@](CC=C)(C(=O)C(C(C)=O)=C1[O-])C2=O.[Na+]` the Activity [4] was “Not Active”, the Activity [5] was “Non-Toxic” and the Activity [6] was “Active”. For the same compound, the Activity [7] was “Not Active”, the IC50 [1] was 38.8 µM and the Activity [1] was “Active”. The Activity [8] was “Not Active”, the Activity [9] was “Non-Toxic” and the Activity [10] was “Dose-Dependent Effect”. For the same compound, the IC50 [11] was 6.8 µM, the Activity [12] was “Not Active” and the Activity [13] was “Not Active”. For the same compound, the Activity [3] was “Dose-Dependent Effect”, the “fold change (FC)” value [14] was 5 and the Activity [15] was “Not Active”. The Activity [16] was < 80%, the Activity [17] was “Not Active” and the Activity [18] was “Toxic”. The Activity [19] was “Not Active” and the Activity [20] was “Non-Toxic”.
With `C=CC[C@@]12C[C@H](CC=C(C)C)C(C)(C)[C@@](CC=C)(C(=O)C(C(=O)c3ccccc3)=C1O)C2=O` the Activity [1] was “inactive”.
For `CC(C)=CC[C@H]1C[C@@]2(CC=C(C)C)C(=O)[C@](CC=C(C)C)(C(=O)C(C(=O)C(C)C)=C2O)C1(C)C`, the Activity [1] was “inactive”.
